Where two headings read alike, the source gives them in different places.
How the values were obtained:
Jarid1A = Jarid1A (Homo sapiens (Human), UniProt P29375); assay: Jarid1A in vitro enzyme inhibition assay (TR-FRET); type: biochemical
From the text: The enzymatic assay of Jarid1A activity is based upon Time Resolved-Fluorescence Resonance Energy Transfer (TR-FRET) detection.

Jarid1B = Jarid1B (Homo sapiens (Human), UniProt Q9UGL1); assay: Jarid1B in vitro enzyme inhibition assay (TR-FRET); type: biochemical
JMJD2C = JMJD2C (Homo sapiens (Human), UniProt Q9H3R0); assay: JMJD2C in vitro enzyme inhibition assay (TR-FRET); type: biochemical
Protocol: Baculovirus expressed JMJD2C (GenBank Accession #BC143571, AA 2-372) was purchased from BPS Bioscience (Cat#50105).
The ability of test compounds to inhibit the activity of JMJD2C was determined in 384-well plate format under the following reaction conditions: 0.3 nM JMJD2C, 300 nM H3K9me3-biotin labeled peptide (Anaspec cat #64360), 2 μM alpha-ketoglutaric acid in assay buffer of 50 mM HEPES, pH7.3, 0.005% Brij35, 0.5 mM TCEP, 0.2 mg/ml BSA, 50 μM sodium L-ascorbate, and 2 μM ammonium iron(II) sulfate. Reaction product was determined quantitatively by TR-FRET after the addition of detection reagent Phycolink Streptavidin-allophycocyanin (Prozyme) and Europium-anti-di-methylated histone H3 lysine 9 (H3K9me2) antibody (PerkinElmer) in the presence of 5 mM EDTA in LANCE detection buffer (PerkinElmer) at a final concentration of 50 nM and 1 nM, respectively.
The assay reaction was initiated by the following: 2 μl of the mixture of 900 nM H3K9me3-biotin labeled peptide and 6 μM alpha-ketoglutaric acid with 2 μl of 11-point serial diluted inhibitor in 3% DMSO were added to each well of the plate, followed by the addition of 2 μl of 0.9 nM JMJD2C to initiate the reaction. The reaction mixture was incubated at room temperature for 30 minutes, and terminated by the addition of 6 μl of 5 mM EDTA in LANCE detection buffer containing 100 nM Phycolink Streptavidin-allophycocyanin and 2 nM Europium-anti-H3K9me2 antibody. Plates were read by EnVisionMultilabel Reader in TR-FRET mode (excitation at 320 nm, emission at 615 nm and 665 nm) after 1 hour incubation at room temperature. A ratio was calculated (665/615) for each well and fitted to determine inhibition constant (IC50).

KDM5A/B = assay: In vitro cell-based assay: quantitative immuno-blotting of tri-methyl H3K4 in ZR-75-1 breast cancer cells; details: 72 hours exposure, read-out: Cellular IC50
From the text: This quantitative immuno-blotting assay measures the amount tri-methylated histone H3 at amino acid Lysine number 4, a specific substrate […] of the direct enzymatic activity of the histone demethylases KDM5A and KDM5B from extracts of the ZR-75-1 breast cancer cell line.
This assay is a fluorometric immunoassay for the quantification of tri-methyl H3K4 extracted from cells treated with test compound and is used as a measure of the cellular inhibition of KDM5A/B.
ZR-75-1 (PTEN null, ER+) breast cancer cells numbering 50,000 (ATCC) were seeded into each well of a 96-well tissue culture treated plate and then exposed to an 11 point dilution of test compound with final concentration ranges of test compound ranging from […] to 10 nM. […] Extracts were prepared containing all of the cellular histone material using detergent based lysis and sonication methods. These lysates were subsequently normalized for total protein content using a colorimetric bicinchonic acid assay (MicroBCA Pierce/Thermo Scientific). Normalized cell extracts were then subjected to typical immuno-blotting procedures using NuPage reagents (Life Technologies). Electrophoretically separated histones were then transferred and immobilized using polyvinylidene difluoride membrane (Immobilon-FL Millipore). The amount of tri-methylated lysine 4 of histone H3 was detected using an antibody specific to the tri-methylated state (Cell Signaling Technologies) and quantified on an infrared imager using a densitometry software package (Odyssey CLx, Image Studio, Li-Cor). This background subtracted densitometry value was reported as a ration of the GAPDH amount for that sample and then calculated as a percent of the DMSO treated sample. The software package XL-fit (IDBS) was then used to calculate a relative IC50 value for the dilution series of a given test compound according to the equation: fit=(D+((Vmax*(x^n))/((x^n)+(Km^n)))).

FBXL10 = FBXL10 (Homo sapiens (Human), UniProt Q8NHM5); assay: FBXL10 in vitro enzyme inhibition assay (AlphaScreen); type: biochemical
Protocol: Reaction product was determined quantitatively by AlphaScreen detection after the addition of detection reagents anti-H3K36me1 antibody, AlphaScreen® Streptavidin-coated Donor beads, and AlphaScreen® Protein A Acceptor beads in 50 mM HEPES, pH7.3, 10 mM NaCl, 0.005% Brij35, 5 mM EDTA, 2 mg/ml BSA to final 10 μg/ml beads.
Plates were incubated at room temperature for 40 minutes, followed by addition of 3 μl of 50 μg/ml AlphaScreen® Streptavidin-coated Donor beads and AlphaScreen® Protein A Acceptor beads in 50 mM HEPES, pH7.3, 10 mM NaCl, 0.005% Brij35, 5 mM EDTA, 2 mg/ml BSA. Plates were read by EnVisionMultilabel Reader in AlphaScreen mode after a minimum of 2 hour or up to overnight incubation at room temperature. The AlphaScreen signal for each well was used to determine inhibition constant (IC50).

JMJD2A = JMJD2A (Homo sapiens (Human), UniProt O75164); assay: JMJD2A in vitro enzyme inhibition assay (TR-FRET); details: read-out: JMJD2A IC50
Sequence of JMJD2A (O75164 1-350): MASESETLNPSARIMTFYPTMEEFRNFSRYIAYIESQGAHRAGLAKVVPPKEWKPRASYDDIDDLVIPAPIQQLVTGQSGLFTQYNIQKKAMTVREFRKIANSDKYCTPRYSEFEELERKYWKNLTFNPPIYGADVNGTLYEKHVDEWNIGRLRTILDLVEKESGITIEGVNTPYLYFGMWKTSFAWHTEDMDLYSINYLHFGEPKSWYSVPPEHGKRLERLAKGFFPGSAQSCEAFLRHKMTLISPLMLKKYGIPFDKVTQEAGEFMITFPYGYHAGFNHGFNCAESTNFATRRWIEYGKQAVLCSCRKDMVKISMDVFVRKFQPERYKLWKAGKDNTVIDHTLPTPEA
Protocol: This assay determines the ability of a test compound to inhibit Jarid1A, Jarid1B, JMJD2C, and JMJD2A demethylase activity.
Reaction product was determined quantitatively by TR-FRET after the addition of detection reagent Phycolink Streptavidin-allophycocyanin (Prozyme) and Europium-anti-di-methylated histone H3 lysine 9 (H3K9me2) antibody (PerkinElmer) in the presence of 5 mM EDTA in LANCE detection buffer (PerkinElmer) at a final concentration of 50 nM and 1 nM, respectively.
The assay reaction was initiated by the following: 2 μl of the mixture of 900 nM H3K9me3-biotin labeled peptide and 6 μM alpha-ketoglutaric acid with 2 μl of 11-point serial diluted inhibitor in 3% DMSO were added to each well of plate, followed by the addition of 2 μl of 6 nM JMJD2A to initiate the reaction. The reaction mixture was incubated at room temperature for 30 minutes, and terminated by the addition of 6 μl of 5 mM EDTA in LANCE detection buffer containing 100 nM Phycolink Streptavidin-allophycocyanin and 2 nM Europium-anti-H3K9me2 antibody.

Sequence of Jarid1B (Q9UGL1 2-751): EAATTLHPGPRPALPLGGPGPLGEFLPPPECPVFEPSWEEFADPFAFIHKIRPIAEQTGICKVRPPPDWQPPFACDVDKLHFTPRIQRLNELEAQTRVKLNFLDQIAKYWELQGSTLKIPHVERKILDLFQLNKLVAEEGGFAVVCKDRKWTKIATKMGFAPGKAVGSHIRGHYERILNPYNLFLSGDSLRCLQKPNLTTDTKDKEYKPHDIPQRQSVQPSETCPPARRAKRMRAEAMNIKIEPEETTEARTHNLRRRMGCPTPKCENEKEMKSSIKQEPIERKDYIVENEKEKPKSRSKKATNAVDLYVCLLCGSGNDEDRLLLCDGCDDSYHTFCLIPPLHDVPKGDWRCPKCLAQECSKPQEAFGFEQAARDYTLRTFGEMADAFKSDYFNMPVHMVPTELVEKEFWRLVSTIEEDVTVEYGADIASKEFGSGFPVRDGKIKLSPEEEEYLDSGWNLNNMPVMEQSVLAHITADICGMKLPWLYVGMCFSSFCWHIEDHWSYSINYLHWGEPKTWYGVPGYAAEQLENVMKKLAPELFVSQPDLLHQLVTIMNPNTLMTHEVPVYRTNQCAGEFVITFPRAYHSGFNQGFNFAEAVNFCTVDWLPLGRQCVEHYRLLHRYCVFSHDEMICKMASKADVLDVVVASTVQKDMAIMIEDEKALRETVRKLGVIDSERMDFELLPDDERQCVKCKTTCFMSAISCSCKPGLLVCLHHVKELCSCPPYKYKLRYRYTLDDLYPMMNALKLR
Sequence of FBXL10 (Q8NHM5 1-650): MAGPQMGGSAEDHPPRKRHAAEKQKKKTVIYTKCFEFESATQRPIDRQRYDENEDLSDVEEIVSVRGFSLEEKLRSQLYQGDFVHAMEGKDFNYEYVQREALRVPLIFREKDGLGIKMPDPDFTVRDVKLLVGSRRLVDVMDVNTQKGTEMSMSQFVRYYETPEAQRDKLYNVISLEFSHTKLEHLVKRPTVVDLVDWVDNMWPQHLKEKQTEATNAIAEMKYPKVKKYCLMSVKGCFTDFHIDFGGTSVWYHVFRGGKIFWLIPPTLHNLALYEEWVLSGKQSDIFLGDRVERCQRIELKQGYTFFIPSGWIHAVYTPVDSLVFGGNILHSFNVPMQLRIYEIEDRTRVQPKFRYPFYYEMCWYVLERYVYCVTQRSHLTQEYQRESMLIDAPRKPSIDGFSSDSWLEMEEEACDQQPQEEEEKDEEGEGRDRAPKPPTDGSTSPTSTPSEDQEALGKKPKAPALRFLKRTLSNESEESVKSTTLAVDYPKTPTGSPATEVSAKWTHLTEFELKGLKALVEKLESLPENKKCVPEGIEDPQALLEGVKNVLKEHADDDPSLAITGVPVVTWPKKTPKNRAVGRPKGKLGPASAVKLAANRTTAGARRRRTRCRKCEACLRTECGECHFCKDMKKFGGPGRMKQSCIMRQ
Sequence of Jarid1A (P29375 1-1090): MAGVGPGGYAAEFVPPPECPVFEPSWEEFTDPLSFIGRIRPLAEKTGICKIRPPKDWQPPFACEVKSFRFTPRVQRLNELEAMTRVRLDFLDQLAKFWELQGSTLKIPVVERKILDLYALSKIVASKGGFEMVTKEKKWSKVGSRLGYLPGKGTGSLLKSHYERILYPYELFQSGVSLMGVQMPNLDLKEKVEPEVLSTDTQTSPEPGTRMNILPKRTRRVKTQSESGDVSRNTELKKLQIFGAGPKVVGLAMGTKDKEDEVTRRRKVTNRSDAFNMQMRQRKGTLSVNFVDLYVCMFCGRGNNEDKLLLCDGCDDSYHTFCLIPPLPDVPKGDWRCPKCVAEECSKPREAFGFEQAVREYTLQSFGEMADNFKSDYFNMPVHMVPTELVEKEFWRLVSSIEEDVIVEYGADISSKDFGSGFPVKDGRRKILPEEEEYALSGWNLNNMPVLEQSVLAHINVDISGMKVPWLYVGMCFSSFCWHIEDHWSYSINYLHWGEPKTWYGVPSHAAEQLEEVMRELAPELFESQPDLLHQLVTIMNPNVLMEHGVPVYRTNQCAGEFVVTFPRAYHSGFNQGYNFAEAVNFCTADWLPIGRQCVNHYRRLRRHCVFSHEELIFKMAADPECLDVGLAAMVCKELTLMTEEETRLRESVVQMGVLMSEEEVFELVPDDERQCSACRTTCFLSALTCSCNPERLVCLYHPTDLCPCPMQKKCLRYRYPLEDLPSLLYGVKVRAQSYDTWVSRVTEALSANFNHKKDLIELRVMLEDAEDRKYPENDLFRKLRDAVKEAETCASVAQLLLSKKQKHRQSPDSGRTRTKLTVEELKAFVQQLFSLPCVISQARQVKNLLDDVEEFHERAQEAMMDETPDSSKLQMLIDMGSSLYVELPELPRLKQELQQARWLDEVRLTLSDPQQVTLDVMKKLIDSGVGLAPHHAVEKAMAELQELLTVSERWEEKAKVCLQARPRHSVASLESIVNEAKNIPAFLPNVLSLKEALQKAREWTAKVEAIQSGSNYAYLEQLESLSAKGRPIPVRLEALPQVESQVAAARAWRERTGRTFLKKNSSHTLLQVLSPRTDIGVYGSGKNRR
Sequence of JMJD2C (Q9H3R0 2-372): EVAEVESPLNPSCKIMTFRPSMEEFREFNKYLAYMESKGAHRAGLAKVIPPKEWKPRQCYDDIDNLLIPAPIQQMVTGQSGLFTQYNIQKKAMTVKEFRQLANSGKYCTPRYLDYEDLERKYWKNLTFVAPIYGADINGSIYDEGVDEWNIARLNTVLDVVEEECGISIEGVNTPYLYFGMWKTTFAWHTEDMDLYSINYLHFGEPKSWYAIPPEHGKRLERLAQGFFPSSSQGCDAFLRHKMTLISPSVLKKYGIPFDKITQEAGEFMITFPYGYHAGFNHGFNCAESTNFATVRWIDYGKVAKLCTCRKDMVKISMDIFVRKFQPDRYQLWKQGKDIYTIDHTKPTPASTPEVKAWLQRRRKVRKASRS

Row | Molecule | IC50 (Jarid1A) | IC50 (Jarid1B) | IC50 (JMJD2C) | IC50 (KDM5A/B; Homo sapiens) | IC50 (FBXL10) | IC50 (JMJD2A) | IC50 (KDM5A/B)
1 | CCc1cc(Cl)ccc1COc1ccnn1-c1cc(C(=O)O)ccn1 [Example 127, 2-[5-[(4-chloro-2-ethylphenyl)methoxy]pyrazol-1-yl]pyridine-4-carboxylic acid] | 100 to 1000 nM | 100 to 1000 nM | 1000 to 10000 nM | 1000 to 10000 nM | – | – | –
2 | O=C(O)c1ccnc(-n2nc(Cc3ccccc3Cl)cc2O)c1 [Example 163, 2-[3-[(2-chlorophenyl)methyl]-5-hydroxypyrazol-1-yl]pyridine-4-carboxylic acid] | – | 1000 to 10000 nM | 1000 to 10000 nM | – | < 100 nM | > 10000 nM | –
3 | CC1(C)Cc2cccc(COc3ccnn3-c3cc(C(=O)O)ccn3)c2O1 [Example 124, 2-[5-[(2,2-dimethyl-3H-1-benzofuran-7-yl)methoxy]pyrazol-1-yl]pyridine-4-carboxylic acid] | 100 to 1000 nM | < 100 nM | – | > 10000 nM | – | – | –
4 | O=C(O)c1ccnc(-n2ccc(CCc3ccccc3)n2)c1 [Example 35, 2-(3-phenethyl-1H-pyrazol-1-yl)isonicotinic acid] | 100 to 1000 nM | 100 to 1000 nM | 100 to 1000 nM | – | – | 100 to 1000 nM | –
5 | O=C(O)c1ccnc(-n2nccc2OCc2ccc(F)c(OCc3ccc(F)cc3)c2)c1 [Example 139, 2-[5-[[4-fluoro-3-[(4-fluorophenyl)methoxy]phenyl]methoxy]pyrazol-1-yl]pyridine-4-carboxylic acid] | – | – | – | 100 to 1000 nM | – | – | –
6 | O=C(O)c1ccnc(-n2nccc2OCc2ccc(Br)cc2)c1 [Example 57, 2-{5-[(4-bromobenzyl)oxy]-1H-pyrazol-1-yl}pyridine-4-carboxylic acid] | < 100 nM | < 100 nM | < 100 nM | 100 to 1000 nM | – | – | –
7 | Cc1ccc(COc2ccnn2-c2cc(C(=O)O)ccn2)c(C)c1 [Example 132, 2-[5-[(2,4-dimethylphenyl)methoxy]pyrazol-1-yl]pyridine-4-carboxylic acid] | < 100 nM | < 100 nM | 100 to 1000 nM | – | 1000 to 10000 nM | 100 to 1000 nM | –
8 | O=C(O)c1ccnc(-n2nc(Cc3ccc(Cl)cc3)cc2O)c1 [Example 165, 2-[3-[(4-chlorophenyl)methyl]-5-hydroxypyrazol-1-yl]pyridine-4-carboxylic acid] | – | 100 to 1000 nM | 1000 to 10000 nM | – | < 100 nM | > 10000 nM | –
9 | CCCCOc1cc(Cl)ccc1COc1ccnn1-c1cc(C(=O)O)ccn1 [Example 111, 2-[5-[(2-butoxy-4-chlorophenyl)methoxy]pyrazol-1-yl]pyridine-4-carboxylic acid] | 100 to 1000 nM | 100 to 1000 nM | 1000 to 10000 nM | – | 1000 to 10000 nM | 1000 to 10000 nM | –
10 | O=C(O)c1ccnc(-n2nccc2OCc2cccc(Br)c2)c1 [Example 72, 2-{5-[(3-bromobenzyl)oxy]-1H-pyrazol-1-yl}pyridine-4-carboxylic acid] | < 100 nM | < 100 nM | < 100 nM | 1000 to 10000 nM | – | – | –
11 | Cc1ccc(COc2ccnn2-c2cc(C(=O)O)ccn2)c(Cl)c1 [Example 130, 2-[5-[(2-chloro-4-methylphenyl)methoxy]pyrazol-1-yl]pyridine-4-carboxylic acid] | 100 to 1000 nM | 100 to 1000 nM | 1000 to 10000 nM | – | 1000 to 10000 nM | 100 to 1000 nM | –
12 | O=C(O)c1ccnc(-n2nccc2OCc2ccc(F)cc2OCc2ccc(F)cc2)c1 [Example 118, 2-[5-[[4-fluoro-2-[(4-fluorophenyl)methoxy]phenyl]methoxy]pyrazol-1-yl]pyridine-4-carboxylic acid] | < 100 nM | < 100 nM | 100 to 1000 nM | – | 1000 to 10000 nM | 100 to 1000 nM | –
13 | O=C(O)c1ccnc(-n2nc(C3CC3)cc2O)c1 [Example 2, 2-(3-cyclopropyl-5-hydroxy-1H-pyrazol-1-yl)isonicotinic acid] | < 100 nM | < 100 nM | 100 to 1000 nM | – | < 100 nM | 100 to 1000 nM | –
14 | CCOc1cc(Cl)ccc1COc1ccnn1-c1cc(C(=O)O)ccn1 [Example 115, 2-[5-[(4-chloro-2-ethoxyphenyl)methoxy]pyrazol-1-yl]pyridine-4-carboxylic acid] | < 100 nM | < 100 nM | 100 to 1000 nM | 100 to 1000 nM | – | – | –
15 | methyl 2-[5-(benzyloxy)-1H-pyrazol-1-yl]pyridine-4-carboxylate [Example 62] | – | – | – | – | – | – | 1000 to 10000 nM
16 | Oc1cc(Cc2ccc(Cl)cc2)nn1-c1cc(-c2nnn[nH]2)ccn1 [Example 169, 5-[(4-chlorophenyl)methyl]-2-[4-(1H-tetrazol-5-yl)pyridin-2-yl]pyrazol-3-ol] | – | 1000 to 10000 nM | 1000 to 10000 nM | – | < 100 nM | > 10000 nM | –
17 | O=C(O)c1ccnc(-n2nc(-c3ccc(Cl)cc3)cc2O)c1 [Example 158, 2-[3-(4-chlorophenyl)-5-hydroxypyrazol-1-yl]pyridine-4-carboxylic acid] | 1000 to 10000 nM | 1000 to 10000 nM | 1000 to 10000 nM | – | < 100 nM | 1000 to 10000 nM | –
18 | O=C(O)c1ccnc(-n2nccc2-c2cccc(O)c2)c1 [Example 17, 2-(5-(3-hydroxyphenyl)-1H-pyrazol-1-yl)isonicotinic acid] | 100 to 1000 nM | 100 to 1000 nM | 100 to 1000 nM | – | – | 100 to 1000 nM | –
19 | O=C(O)c1ccnc(-n2nccc2-c2ccc(F)cc2F)c1 [Example 14, 2-(5-(2,4-difluorophenyl)-1H-pyrazol-1-yl)isonicotinic acid] | 100 to 1000 nM | 100 to 1000 nM | 100 to 1000 nM | – | – | 100 to 1000 nM | –
20 | O=C(O)c1ccnc(-n2nc(Cc3cccc(Cl)c3)cc2O)c1 [Example 164, 2-[3-[(3-chlorophenyl)methyl]-5-hydroxypyrazol-1-yl]pyridine-4-carboxylic acid] | – | 1000 to 10000 nM | 1000 to 10000 nM | – | < 100 nM | > 10000 nM | –
21 | CC(C)COc1cc(Cl)ccc1COc1ccnn1-c1cc(C(=O)O)ccn1 [Example 112, 2-[5-[[4-chloro-2-(2-methylpropoxy)phenyl]methoxy]pyrazol-1-yl]pyridine-4-carboxylic acid] | 100 to 1000 nM | 100 to 1000 nM | 1000 to 10000 nM | – | 1000 to 10000 nM | 1000 to 10000 nM | –
22 | Cc1ccc(-c2ccnn2-c2cc(C(=O)O)ccn2)cc1 [Example 12, 2-(5-p-tolyl-1H-pyrazol-1-yl)isonicotinic acid] | 100 to 1000 nM | 100 to 1000 nM | 100 to 1000 nM | – | – | 100 to 1000 nM | –
23 | O=C(O)c1ccnc(-n2nccc2OCc2ccccc2)c1 [Example 39, 2-(5-(benzyloxy)-1H-pyrazol-1-yl)isonicotinic acid] | < 100 nM | < 100 nM | < 100 nM | – | – | < 100 nM | –
24 | O=C(O)c1ccnc(-n2nc(C3CCCC3)cc2O)c1 [Example 160, 2-(3-cyclopentyl-5-hydroxypyrazol-1-yl)pyridine-4-carboxylic acid] | 1000 to 10000 nM | 100 to 1000 nM | 1000 to 10000 nM | – | < 100 nM | > 10000 nM | –
25 | O=C(O)c1ccnc(-n2nccc2OCc2ccc(Cl)c(OCC3CC3)c2)c1 [Example 140, 2-[5-[[4-chloro-3-(cyclopropylmethoxy)phenyl]methoxy]pyrazol-1-yl]pyridine-4-carboxylic acid] | 100 to 1000 nM | 100 to 1000 nM | – | – | 1000 to 10000 nM | 100 to 1000 nM | –
26 | CC(c1ccccc1)c1cc(O)n(-c2cc(C(=O)O)ccn2)n1 (centres unmarked) [Example 162, 2-[5-hydroxy-3-(1-phenylethyl)pyrazol-1-yl]pyridine-4-carboxylic acid] | – | 1000 to 10000 nM | 1000 to 10000 nM | – | < 100 nM | > 10000 nM | –
27 | O=C(O)c1ccnc(-n2nc(-c3cccc(Cl)c3)cc2O)c1 [Example 159, 2-[3-(3-chlorophenyl)-5-hydroxypyrazol-1-yl]pyridine-4-carboxylic acid] | 1000 to 10000 nM | 1000 to 10000 nM | 1000 to 10000 nM | – | < 100 nM | > 10000 nM | –

— patent publication US9604961B2, “Histone demethylase inhibitors” (Celgene Quanticel Research, Inc., priority 2012, dated 2017)
